Laboratory results from US9540327B2, “Bis-quaternary ammonium salts and methods for modulating neuronal nicotinic acetylcholine receptors” (University of Kentucky Research Foundation, priority 2006, dated 2017).
Read-outs that look alike come from different tables or passages of the source.

Key:
[1] = system: Nicotine-evoked [^3H]Dopamine Release from Superfused Rat Striatal Slices; experiment: Inhibition of nicotine-evoked [^3H]dopamine overflow from superfused rat striatal slices; type: cell-based; details: nicotine 10 μM; for inhibition at 0.1 µM: analog 100 nM, superfused rat striatal slices, read-out: Inhibition Nicotine-evoked [^3H]DA release (% inhibition at 100 nM)
Experimental: The [^3H]dopamine overflow assay using superfused rat striatal slices preloaded with [^3H]dopamine was used to determine the ability of a probe concentration (100 nM) of each bis-quaternary ammonium analog to inhibited nicotine-evoked [^3H]dopamine overflow. Briefly, coronal slices of rat striata (500 μm, 6-8 mg) were obtained using a Mcllwain tissue chopper. Slices were incubated for 30 min in Krebs' buffer (in mM: 118 NaCl, 4.7 KCl, 1.2 MgCl2, 1.0 NaH2PO4, 1.3 CaCl2, 11.1 α-D-glucose, 25 NaHCO3, 0.11 L-ascorbic acid and 0.004 ethylenediaminetetraacetic acid (EDTA), pH 7.4, saturated with 95% O2/5% CO2) at 34° C. in a metabolic shaker. Slices were then incubated for an additional 30 min in fresh buffer containing 0.1 μM [^3H]dopamine. After rinsing, each slice was transferred to each one of 20 superfusion chambers, maintained at 34° C. and superfused (0.6 ml/min) with oxygenated Krebs' buffer in a Brandel Suprafusion 2500 (Biomedical Research and Development Laboratories, Inc., Gaithersburg, Md.). The buffer contained both nomifensine (10 μM), a dopamine uptake blocker, and pargyline (10 μM), a monoamine oxidase inhibitor, ensuring that [^3H]overflow primarily represented [^3H]dopamine, rather than [^3H]metabolites. Following superfusion for 60 min, two 4-min samples (2.4 ml/sample) were collected to determine basal [^3H]outflow. After collection of the second basal sample, slices from an individual rat were superfused for 40 min in the absence (0 nM; control) or presence of each bis-quaternary ammonium analog (100 nM) to determine the intrinsic activity of the analog, i.e., ability of the analog to evoke [^3H]overflow. Following 40 min of superfusion in the absence or presence of analog, nicotine (10 μM) was added to the superfusion buffer and samples were collected for an additional 40 min to determine the ability of the analog to inhibit nicotine-evoked [^3H]dopamine overflow. At least one striatal slice in each experiment was superfused for 40 min in the absence of analog, followed by superfusion with 10 μM nicotine to determine nicotine-evoked [^3H]dopamine overflow in the absence of analog (nicotine control). After collection of the superfusate samples, the slices were retrieved from the chambers and solubilized using 1 ml of TS-2 tissue solubilizer. Scintillation cocktail (4 ml) was added to the superfusate samples. The pH and volume of the solubilized tissue samples were adjusted to that of the superfusate samples. Radioactivity in the superfusate and tissue samples was determined by liquid scintillation spectroscopy (Packard model B 1600 TR Scintillation Counter, Downer's Grove, Ill.).
For individual analogs, a complete concentration response was determined using the following methodology. Rat striatal slices (500 μm thickness, 6-8 mg wet weight) were incubated for 30 minutes in Krebs buffer (118 mM NaCl, 4.7 mM KCl, 1.2 mM MgCl2, 1.0 mM NaH2PO4, 1.3 mM CaCl2, 11.1 mM glucose, 25 mM NaHCO3, 0.11 mM L-ascorbic acid, and 0.004 mM disodium EDTA; pH 7.4, and saturated with 95% O2/5% CO2) in a metabolic shaker at 34° C. Slices were rinsed with 15 mL of fresh buffer and incubated for an additional 30 minutes in fresh buffer containing 0.1 μM [^3H]dopamine (DA; 6 slices/3 mL). Subsequently, slices were rinsed with 15 mL of fresh buffer and transferred to a glass superfusion chamber. Slices were superfused (1.0 mL/min) for 60 minutes with Krebs buffer containing nomifensine (10 μM) and pargyline (10 μM) and maintained at 34° C., pH 7.4, with continual aeration (95% O2/5% CO2). Three 5-minute samples (5 mL each) were collected to determine basal outflow of [^3H]DA. The bis-quaternary analogs were added to the superfusion buffer after the collection of the third sample and remained in the buffer until 12 consecutive five minute samples were collected. Subsequently, S-(−)-nicotine (10 μM) was added to the buffer and an additional 12 consecutive five minute samples were collected. […]

[2] = molecular target: T1, Rat Striatal Nicotinic Receptors ([^3H]MLA binding sites; α7) (Rattus norvegicus, UniProt Q05941); experiment: Inhibition of [^3H]methyllycaconitine binding to rat brain membranes
T1 construct: Whole brain, excluding cortex and cerebellum, was homogenized in 20 vol of ice-cold buffer; from tissue; host or cells: rat brain membranes (whole brain excluding cortex and cerebellum)
Experimental: (§1) Whole brain, excluding cortex and cerebellum, was homogenized in 20 vol of ice-cold buffer, containing (in mM): 2 HEPES, 11.8 NaCl, 0.48 KCl, 0.25 CaCl2 and 0.12 MgSO4, pH 7.5. Homogenate was centrifuged (25,000 g, 15 min, 4° C.). Pellets were resuspended in 20 vol buffer and incubated at 37° C., for 10 min, cooled to 4° C. and centrifuged (25,000 g, 15 min, 4° C.). Pellets were resuspended and centrifuged using the same conditions. Final pellets were stored in assay buffer, containing (in mM): 20 HEPES, 118 NaCl, 4.8 KCl, 2.5 CaCl2, and 1.2 MgSO4, pH 7.5 at −70° C. Upon use, final pellets were resuspended in ˜20 vol assay buffer. Samples (250 μl) contained 100-140 μg of membrane protein, 3 nM [^3H]nicotine or 3 nM [^3H]methyllycaconitine, and analog (100 nM) in assay buffer containing 50 mM Tris. Control was in the absence of analog. In [^3H]nicotine and [^3H]methyllycaconitine binding assays, nonspecific binding was determined in the presence of 10 μM cytisine and 10 μM nicotine, respectively. Incubations proceeded for 60 min at room temperature using 96-well plates and were terminated by harvesting on Unifilter-96 GF/B filter plates presoaked in 0.5% polyethylenimine, using a Packard FilterMate harvester. After washing 5 times with 350 μl ice-cold assay buffer, filter plates were dried (60 min, […]), bottom-sealed, and filled with Packard's MicroScint 20 cocktail (40 μl/well). After 60 min, filter plates were top-sealed, and radioactivity determined using a Packard TopCount. Protein concentrations were determined using the Bradford dye-binding procedure bovine serum albumin as the standard.
(§2) […] Specific binding in the [^3H]NIC binding assay is calculated as the difference between the total binding of 3 nM [^3H]NIC and nonspecific binding in the presence of 10 μM cytisine. Specific binding for the [^3H]MLA binding assay is calculated as the difference between the total binding of 3 nM [^3H]MLA to the receptors alone and its nonspecific binding in the presence of 10 μM nicotine. Analog-induced inhibition of nicotine-evoked [^3H]DA release is calculated as a percent of that in the absence of the bis-quaternary ammonium analog.

[3] = molecular target: T2, Rat Striatal Nicotinic Receptors ([^3H]NIC binding sites; α4β2) (Rattus norvegicus, UniProt P09483+P12390); experiment: Inhibition of [^3H]nicotine binding to rat brain membranes
T2 construct: Whole brain, excluding cortex and cerebellum, was homogenized in 20 vol of ice-cold buffer; from tissue; host or cells: rat brain membranes (whole brain excluding cortex and cerebellum)
Experimental: as §1, §2

[4] = 3 nM [^3H]methyllycaconitine, nonspecific binding with 10 μM nicotine, rat brain membranes, read-out: Inhibition of [^3H]MLA Binding Ki (μM; M ± SEM)
[5] = 3 nM [^3H]nicotine, nonspecific binding with 10 μM cytisine, rat brain membranes, read-out: Inhibition of [^3H]Nicotine binding Ki (μM; M ± SEM)

T2 sequence (P09483 31-630): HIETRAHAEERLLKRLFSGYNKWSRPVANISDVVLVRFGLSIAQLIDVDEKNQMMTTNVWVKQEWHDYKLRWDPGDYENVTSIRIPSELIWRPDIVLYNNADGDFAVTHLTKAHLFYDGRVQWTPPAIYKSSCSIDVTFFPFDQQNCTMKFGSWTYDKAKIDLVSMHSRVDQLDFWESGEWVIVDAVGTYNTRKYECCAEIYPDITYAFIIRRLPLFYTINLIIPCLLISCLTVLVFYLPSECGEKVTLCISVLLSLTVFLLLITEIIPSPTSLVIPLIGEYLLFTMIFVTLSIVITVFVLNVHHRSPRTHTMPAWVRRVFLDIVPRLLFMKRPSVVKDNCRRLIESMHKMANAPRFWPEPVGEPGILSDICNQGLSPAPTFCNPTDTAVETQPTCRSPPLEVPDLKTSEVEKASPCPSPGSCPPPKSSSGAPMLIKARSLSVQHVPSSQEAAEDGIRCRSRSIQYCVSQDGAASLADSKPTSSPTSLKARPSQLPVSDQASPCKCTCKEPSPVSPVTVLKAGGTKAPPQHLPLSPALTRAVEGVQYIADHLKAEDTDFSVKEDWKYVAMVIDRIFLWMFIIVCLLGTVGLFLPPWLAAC
T2 sequence (P12390 25-500): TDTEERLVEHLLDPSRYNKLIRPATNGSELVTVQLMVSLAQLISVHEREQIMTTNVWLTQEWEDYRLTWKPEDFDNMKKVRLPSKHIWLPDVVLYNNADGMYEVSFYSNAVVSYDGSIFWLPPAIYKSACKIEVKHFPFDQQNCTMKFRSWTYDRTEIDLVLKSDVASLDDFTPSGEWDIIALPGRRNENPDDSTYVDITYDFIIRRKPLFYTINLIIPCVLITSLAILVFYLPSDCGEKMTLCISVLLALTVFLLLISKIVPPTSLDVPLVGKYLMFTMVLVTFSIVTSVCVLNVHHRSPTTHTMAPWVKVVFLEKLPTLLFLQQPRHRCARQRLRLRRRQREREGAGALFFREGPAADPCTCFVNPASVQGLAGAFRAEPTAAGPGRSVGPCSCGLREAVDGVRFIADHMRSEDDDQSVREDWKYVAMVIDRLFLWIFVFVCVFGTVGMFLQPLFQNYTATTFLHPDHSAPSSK
T1 sequence (Q05941 23-502): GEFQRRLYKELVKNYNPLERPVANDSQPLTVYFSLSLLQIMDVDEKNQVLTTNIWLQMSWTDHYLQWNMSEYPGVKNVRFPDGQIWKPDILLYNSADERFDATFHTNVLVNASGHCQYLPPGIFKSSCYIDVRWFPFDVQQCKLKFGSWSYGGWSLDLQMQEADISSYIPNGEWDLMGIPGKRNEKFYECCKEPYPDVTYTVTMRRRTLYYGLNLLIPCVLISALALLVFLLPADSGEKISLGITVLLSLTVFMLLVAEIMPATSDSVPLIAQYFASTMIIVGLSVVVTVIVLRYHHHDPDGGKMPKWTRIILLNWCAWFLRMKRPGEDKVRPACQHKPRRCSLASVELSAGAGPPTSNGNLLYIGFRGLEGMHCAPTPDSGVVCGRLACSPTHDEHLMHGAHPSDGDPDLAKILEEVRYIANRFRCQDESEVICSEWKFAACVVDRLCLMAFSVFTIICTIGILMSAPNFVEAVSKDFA

SMILES	inhibition at 0.1 µM [1]	Ki [2, 4]	Ki [3, 5]	concentration dependent inhibition of the effect of nicotine to evoke [^3H]dopamine release (FIG. 1) ([1]; full concentration response, rat striatal slices)	Ki [2]	Ki [3]
C[n+]1cccc(CCCc2ccc[n+](C)c2)c1 [GZ-527A]	32%	> 100 µM	8.2 ± 1.78 µM	–	–	–
C[n+]1ccc(CCCc2cc[n+](C)cc2)cc1 [GZ-527B]	67%	–	–	concentration dependent inhibition	> 100 µM	7.88 ± 1.68 µM
C[n+]1ccccc1CCCc1cccc[n+]1C [GZ-528A]	49%	–	–	–	> 100 µM	8.17 ± 0.17 µM
Cc1cc(CCCc2cc(C)c[n+](C)c2)c[n+](C)c1 [GZ-528B]	30%	> 100 µM	> 100 µM	–	–	–
Cc1ccc[n+](CCCc2ccc[n+](C)c2)c1 [GZ-529A]	43%	> 100 µM	> 100 µM	–	–	–
Cc1cc(C)c[n+](CCCc2ccc[n+](C)c2)c1 [GZ-529B]	25%	–	–	–	> 100 µM	> 100 µM
CN1CCC[C@@H]1c1ccc[n+](CCCc2ccc[n+](C)c2)c1 [GZ-530A]	43%	–	–	–	> 100 µM	6.62 ± 1.14 µM
C[n+]1cccc(CCC[n+]2ccccc2)c1 [GZ-530B]	9%	–	–	–	> 100 µM	23.4 ± 3.94 µM
